Results published in ChEMBL document CHEMBL3525983, “Pharmacokinetics, metabolism, and disposition of rivoglitazone, a novel peroxisome proliferator-activated receptor γ agonist, in rats and monkeys” (Drug Metab Dispos, 2011).

Legend:
[1] = Terminal elimination half life in F344/DuCrlCrlj rat at 0.5 mg/kg, po administered via gavage by LC-MS/MS analysis; assay type: ADME, organism-based; parameters: dose 0.5 mg/kg, dosed compound name [14C]Rivoglitazone, route oral; conditions: in vivo, read-out: beta t1/2 (converted)
[2] = AUC (0 to t) in monkey at 0.986 mg/kg, po administered via gavage by LC-MS/MS analysis; assay type: ADME, organism-based, Macaca mulatta; parameters: dose 0.986 mg/kg, dosed compound name [14C]Rivoglitazone, route oral; conditions: rhesus monkey, plasma
[3] = AUC (0 to t) in monkey at 0.0986 mg/kg, iv administered via tail vein by LC-MS/MS analysis; assay type: ADME, organism-based, Macaca mulatta; parameters: dose 0.0986 mg/kg, dosed compound name [14C]Rivoglitazone, route intravenous; conditions: rhesus monkey, plasma
[4] = Tmax in monkey at 0.493 mg/kg, po administered via gavage by LC-MS/MS analysis; assay type: ADME, organism-based, Macaca mulatta; parameters: dose 0.493 mg/kg, dosed compound name [14C]Rivoglitazone, route oral; conditions: rhesus monkey, in vivo
[5] = Tmax in F344/DuCrlCrlj rat at 0.5 mg/kg, po administered via gavage by LC-MS/MS analysis; assay type: ADME, organism-based; parameters: dose 0.5 mg/kg, dosed compound name [14C]Rivoglitazone, route oral; conditions: in vivo
[6] = Total clearance in F344/DuCrlCrlj rat at 0.5 mg/kg, iv administered via tail vein by LC-MS/MS analysis; assay type: ADME, organism-based; parameters: dose 0.5 mg/kg, dosed compound name [14C]Rivoglitazone, route intravenous; conditions: in vivo
[7] = Total clearance in F344/DuCrlCrlj rat at 0.1 mg/kg, iv administered via tail vein by LC-MS/MS analysis; assay type: ADME, organism-based; parameters: dose 0.1 mg/kg, dosed compound name [14C]Rivoglitazone, route intravenous; conditions: in vivo
Rattus norvegicus = assay: Drug uptake in F344/DuCrlCrlj rat plasma assessed as unchanged compound at 1 to 5 mg/kg, po administered as single dose via gavage by LC-MS/MS analysis; assay type: ADME, organism-based; parameters: dose 1-5 mg/kg, dosed compound name [14C]Rivoglitazone, route oral; conditions: in vivo
[8] = Drug excretion in F344/DuCrlCrlj rat feces assessed as unchanged compound at 1 mg/kg, po administered via gavage measured during 0 to 48 hrs by radio-HPLC analysis; assay type: ADME, organism-based; parameters: dose 1 mg/kg, dosed compound name [14C]Rivoglitazone, route oral; conditions: read-out: Compound recovery
[9] = Volume of distribution at steady state in F344/DuCrlCrlj rat at 0.1 mg/kg, iv administered via tail vein by LC-MS/MS analysis; assay type: ADME, organism-based; parameters: dose 0.1 mg/kg, dosed compound name [14C]Rivoglitazone, route intravenous; conditions: in vivo, read-out: Vdss
[10] = Oral bioavailability in F344/DuCrlCrlj rat at 0.1 mg/kg administered via gavage by LC-MS/MS analysis; assay type: ADME, organism-based; parameters: dosed compound name [14C]Rivoglitazone; conditions: in vivo
[11] = AUC (0 to infinity) in F344/DuCrlCrlj rat at 0.5 mg/kg, po administered via gavage by LC-MS/MS analysis; assay type: ADME, organism-based; parameters: time infinity, dose 0.5 mg/kg, dosed compound name [14C]Rivoglitazone, route oral; conditions: plasma
[12] = AUC (0 to t) in F344/DuCrlCrlj rat at 0.5 mg/kg, iv administered via tail vein by LC-MS/MS analysis; assay type: ADME, organism-based; parameters: dose 0.5 mg/kg, dosed compound name [14C]Rivoglitazone, route intravenous; conditions: plasma
[13] = Cmax in monkey at 0.986 mg/kg, po administered via gavage by LC-MS/MS analysis; assay type: ADME, organism-based, Macaca mulatta; parameters: dose 0.986 mg/kg, dosed compound name [14C]Rivoglitazone, route oral; conditions: rhesus monkey, in vivo
[14] = Cmax in F344/DuCrlCrlj rat at 0.1 mg/kg, po administered via gavage by LC-MS/MS analysis; assay type: ADME, organism-based; parameters: dose 0.1 mg/kg, dosed compound name [14C]Rivoglitazone, route oral; conditions: in vivo
[15] = Drug excretion in bile duct-cannulated rat feces assessed as unchanged compound level administered through intravenous by radio-HPLC analysis; assay type: ADME; parameters: dosed compound name [14C]Rivoglitazone; conditions: read-out: Compound recovery
[16] = Tmax in monkey at 0.0986 mg/kg, po administered via gavage by LC-MS/MS analysis; assay type: ADME, organism-based, Macaca mulatta; parameters: dose 0.0986 mg/kg, dosed compound name [14C]Rivoglitazone, route oral; conditions: rhesus monkey, in vivo
[17] = Apparent total clearance in monkey at 0.986 mg/kg, po administered via gavage by LC-MS/MS analysis; assay type: ADME, organism-based, Macaca mulatta; parameters: dose 0.986 mg/kg, dosed compound name [14C]Rivoglitazone, route oral; conditions: rhesus monkey, in vivo, read-out: CLt/F
[18] = Terminal elimination half life in F344/DuCrlCrlj rat at 0.5 mg/kg, iv administered via tail vein by LC-MS/MS analysis; assay type: ADME, organism-based; parameters: dose 0.5 mg/kg, dosed compound name [14C]Rivoglitazone, route intravenous; conditions: in vivo, read-out: beta t1/2 (converted)
[19] = Volume of distribution at steady state in F344/DuCrlCrlj rat at 0.5 mg/kg, iv administered via tail vein by LC-MS/MS analysis; assay type: ADME, organism-based; parameters: dose 0.5 mg/kg, dosed compound name [14C]Rivoglitazone, route intravenous; conditions: in vivo, read-out: Vdss
[20] = Drug excretion in monkey feces assessed as unchanged compound at 1 mg/kg, po administered via gavage measured during 0 to 72 hrs by radio-HPLC analysis; assay type: ADME, organism-based, Macaca mulatta; parameters: dose 1 mg/kg, dosed compound name [14C]Rivoglitazone, route oral; conditions: rhesus monkey, read-out: Compound recovery
Plasma [21] = assay: Drug uptake in monkey plasma assessed as unchanged compound at 1 to 5 mg/kg, po administered as single dose via gavage by LC-MS/MS analysis; assay type: ADME, organism-based, Macaca mulatta; parameters: dose 1-5 mg/kg, dosed compound name [14C]Rivoglitazone, route oral; conditions: rhesus monkey, in vivo
[22] = Apparent total clearance in monkey at 0.0986 mg/kg, po administered via gavage by LC-MS/MS analysis; assay type: ADME, organism-based, Macaca mulatta; parameters: dose 0.0986 mg/kg, dosed compound name [14C]Rivoglitazone, route oral; conditions: rhesus monkey, in vivo, read-out: CLt/F
[23] = AUC (0 to t) in F344/DuCrlCrlj rat at 1 mg/kg, po administered via gavage by LC-MS/MS analysis; assay type: ADME, organism-based; parameters: dose 1 mg/kg, dosed compound name [14C]Rivoglitazone, route oral; conditions: plasma
[24] = Cmax in F344/DuCrlCrlj rat at 1 mg/kg, po administered via gavage by LC-MS/MS analysis; assay type: ADME, organism-based; parameters: dose 1 mg/kg, dosed compound name [14C]Rivoglitazone, route oral; conditions: in vivo
[25] = Terminal elimination half life in monkey at 0.0986 mg/kg, po administered via gavage by LC-MS/MS analysis; assay type: ADME, organism-based, Macaca mulatta; parameters: dose 0.0986 mg/kg, dosed compound name [14C]Rivoglitazone, route oral; conditions: rhesus monkey, in vivo, read-out: beta t1/2 (converted)
[26] = Tmax in monkey at 0.986 mg/kg, po administered via gavage by LC-MS/MS analysis; assay type: ADME, organism-based, Macaca mulatta; parameters: dose 0.986 mg/kg, dosed compound name [14C]Rivoglitazone, route oral; conditions: rhesus monkey, in vivo
[27] = Total clearance in monkey at 0.986 mg/kg, iv administered via tail vein by LC-MS/MS analysis; assay type: ADME, organism-based, Macaca mulatta; parameters: dose 0.986 mg/kg, dosed compound name [14C]Rivoglitazone, route intravenous; conditions: rhesus monkey, in vivo
[28] = AUC (0 to t) in F344/DuCrlCrlj rat at 0.1 mg/kg, po administered via gavage by LC-MS/MS analysis; assay type: ADME, organism-based; parameters: dose 0.1 mg/kg, dosed compound name [14C]Rivoglitazone, route oral; conditions: plasma
[29] = Total clearance in monkey at 0.493 mg/kg, iv administered via tail vein by LC-MS/MS analysis; assay type: ADME, organism-based, Macaca mulatta; parameters: dose 0.493 mg/kg, dosed compound name [14C]Rivoglitazone, route intravenous; conditions: rhesus monkey, in vivo
[30] = Apparent total clearance in F344/DuCrlCrlj rat at 1 mg/kg, po administered via gavage by LC-MS/MS analysis; assay type: ADME, organism-based; parameters: dose 1 mg/kg, dosed compound name [14C]Rivoglitazone, route oral; conditions: in vivo, read-out: CLt/F
[31] = Drug excretion in monkey urine/feces assessed as unchanged compound at 1 mg/kg, po administered via gavage measured during 0 to 72 hrs by radio-HPLC analysis; assay type: ADME, organism-based, Macaca mulatta; parameters: dose 1 mg/kg, dosed compound name [14C]Rivoglitazone, route oral; conditions: rhesus monkey, urine and feces, read-out: Compound recovery
Plasma [32] = assay: Drug metabolism in F344/DuCrlCrlj rat plasma assessed as 2-((4-((2,4-dioxothiazolidin-5-yl)methyl)phenoxy)methyl)-1-methyl-1H-benzo[d]imidazol-6-yl hydrogen sulfate formation at 1 to 5 mg/kg, po administered as single dose via gavage by LC-MS/MS analysis; assay type: ADME, organism-based; parameters: dose 1-5 mg/kg, dosed compound name [14C]Rivoglitazone, route oral; conditions: in vivo
[33] = AUC (0 to infinity) in monkey at 0.0986 mg/kg, iv administered via tail vein by LC-MS/MS analysis; assay type: ADME, organism-based, Macaca mulatta; parameters: time infinity, dose 0.0986 mg/kg, dosed compound name [14C]Rivoglitazone, route intravenous; conditions: rhesus monkey, plasma

Compound: COc1ccc2nc(COc3ccc(CC4SC(=O)NC4=O)cc3)n(C)c2c1.Cl (racemic)
- half-life [1]: 299 min
- AUC(0-t) [2]: 35800 ng·h/mL
- AUC(0-t) [3]: 3800 ng·h/mL
- Tmax [4]: 4.25 h
- Tmax [5]: 1.13 h
- clearance [6]: 0.333 mL/min/kg
- clearance [7]: 0.329 mL/min/kg
- Compound recovery (Rattus norvegicus): metabolite_detected
- dose excreted [8]: 23.7%
- Vd [9]: 0.125 L/kg
- bioavailability [10]: 98.1%
- AUC(0-inf) [11]: 21800 ng·h/mL
- AUC(0-t) [12]: 22300 ng·h/mL
- Cmax [13]: 2930 ng/mL
- Cmax [14]: 409 ng/mL
- dose excreted [15]: 2.3%
- Tmax [16]: 3 h
- CL/F [17]: 0.41 mL/min/kg
- half-life [18]: 290 min
- Vd [19]: 0.131 L/kg
- dose excreted [20]: 23.5%
- Compound recovery (Plasma [21]): metabolite_detected
- CL/F [22]: 0.432 mL/min/kg
- AUC(0-t) [23]: 48500 ng·h/mL
- Cmax [24]: 4570 ng/mL
- half-life [25]: 500 min
- Tmax [26]: 3.5 h
- clearance [27]: 0.31 mL/min/kg
- AUC(0-t) [28]: 4340 ng·h/mL
- clearance [29]: 0.371 mL/min/kg
- CL/F [30]: 0.304 mL/min/kg
- dose excreted [31]: 23.8%
- Compound recovery (Plasma [32]): metabolite_detected
- AUC(0-inf) [33]: 5000 ng·h/mL
